These results are taken from ChEMBL document CHEMBL5247677, “N-Aryl Indoles as a Novel Class of Potent NaV1.7 Inhibitors” (ACS Med Chem Lett, 2023).

Series [1] concerns the target Nav1.5/beta1/beta2 sodium channel (Homo sapiens, UniProt Q14524). Kind of series: (§1) Inhibition of human Nav1.5/beta1/2 transfected in HEK293-A cells assessed as inhibition of channel current incubated for 5.5 mins by high-throughput electrophysiology system analysis. The format is toxicity, cell-based. To be noted: human, HEK293-A cells transfected with human Nav1.5/beta1/2.

Series [2] concerns the target Sodium channel protein type 9 subunit alpha/beta-1/beta-2 (Homo sapiens, UniProt Q15858). Kind of series: Inhibition of human Nav1.7/beta1/2 transfected in HEK293-A cells assessed as inhibition of channel current incubated for 5.5 mins by high-throughput electrophysiology system analysis. In kind it is cell-based.
Series [3] deals with Nav1.1/beta1/beta2 sodium channel (Homo sapiens, UniProt P35498). Kind of series: (§2) Inhibition of human Nav1.1/beta1/2 transfected in HEK293-A cells assessed as inhibition of channel current incubated for 5.5 mins by high-throughput electrophysiology system analysis. In kind it is toxicity, cell-based. To be noted: human, HEK293-A cells transfected with human Nav1.1/beta1/2.
Series [4] concerns the target Sodium channel protein type 5 subunit alpha/beta-1/beta-2 (Homo sapiens, UniProt Q14524). Described as §1. The format is toxicity, cell-based.
For a further series, the target named is hERG (KCNH2) (Homo sapiens, UniProt Q12809). Kind of series: Inhibition of hERG at 100 uM. In kind it is toxicity.
Series [5] concerns the target Sodium channel protein type 9 subunit alpha/beta-1/beta-2 (Mus musculus, UniProt Q62205). Kind of series: Inhibition of mouse Nav1.7/beta1/2 transfected in HEK293-A cells assessed as inhibition of channel current incubated for 5.5 mins by high-throughput electrophysiology system analysis. In kind it is cell-based.
A short description of series [6]: Unbound fraction in mouse plasma. The format is ADME, cell-free.
Series [7] can be described thus: 1-Octanol/PBS buffer distribution coefficient, log D of the compound at pH 7.4 by HPLC/LC-MS analysis. The format is physicochemical.
Series [8] in a line: Selectivity ratio of IC50 for human Nav1.5/beta1/2 transfected in HEK293-A cells to IC50 for human Nav1.7/beta1/2 transfected in HEK293-A cells.
In another series the test system is Mus musculus. Kind of series: Analgesic activity against PSL-induced neuropathic pain mouse model assessed as reversal of thermal hyperalgesia at 3 mg/kg, po by plantar test. In kind it is functional, organism-based.
In series [9] the target is Sodium channel protein type 1 subunit alpha/beta-1/beta-2 (Homo sapiens, UniProt P35498). The description is as §2. The format is toxicity, cell-based.
Series [10] can be described thus: Aqueous thermodynamic solubility of the compound at pH 6.8 measured after 4 hrs by HPLC-UV analysis. In kind it is physicochemical. To be noted: read-out: Therm_solubility.
The nature of series [11]: Selectivity ratio of IC50 for human Nav1.1/beta1/2 transfected in HEK293-A cells to IC50 for human Nav1.7/beta1/2 transfected in HEK293-A cells.

Each structure is given as a SMILES string. Converted amounts (≈) assume the structure as drawn. The source made the active and inactive calls. The rule behind the calls is not given here.

Chain of Sodium channel protein type 9 subunit alpha/beta-1/beta-2 (Homo sapiens, UniProt Q15858) (Q15858 whole entry): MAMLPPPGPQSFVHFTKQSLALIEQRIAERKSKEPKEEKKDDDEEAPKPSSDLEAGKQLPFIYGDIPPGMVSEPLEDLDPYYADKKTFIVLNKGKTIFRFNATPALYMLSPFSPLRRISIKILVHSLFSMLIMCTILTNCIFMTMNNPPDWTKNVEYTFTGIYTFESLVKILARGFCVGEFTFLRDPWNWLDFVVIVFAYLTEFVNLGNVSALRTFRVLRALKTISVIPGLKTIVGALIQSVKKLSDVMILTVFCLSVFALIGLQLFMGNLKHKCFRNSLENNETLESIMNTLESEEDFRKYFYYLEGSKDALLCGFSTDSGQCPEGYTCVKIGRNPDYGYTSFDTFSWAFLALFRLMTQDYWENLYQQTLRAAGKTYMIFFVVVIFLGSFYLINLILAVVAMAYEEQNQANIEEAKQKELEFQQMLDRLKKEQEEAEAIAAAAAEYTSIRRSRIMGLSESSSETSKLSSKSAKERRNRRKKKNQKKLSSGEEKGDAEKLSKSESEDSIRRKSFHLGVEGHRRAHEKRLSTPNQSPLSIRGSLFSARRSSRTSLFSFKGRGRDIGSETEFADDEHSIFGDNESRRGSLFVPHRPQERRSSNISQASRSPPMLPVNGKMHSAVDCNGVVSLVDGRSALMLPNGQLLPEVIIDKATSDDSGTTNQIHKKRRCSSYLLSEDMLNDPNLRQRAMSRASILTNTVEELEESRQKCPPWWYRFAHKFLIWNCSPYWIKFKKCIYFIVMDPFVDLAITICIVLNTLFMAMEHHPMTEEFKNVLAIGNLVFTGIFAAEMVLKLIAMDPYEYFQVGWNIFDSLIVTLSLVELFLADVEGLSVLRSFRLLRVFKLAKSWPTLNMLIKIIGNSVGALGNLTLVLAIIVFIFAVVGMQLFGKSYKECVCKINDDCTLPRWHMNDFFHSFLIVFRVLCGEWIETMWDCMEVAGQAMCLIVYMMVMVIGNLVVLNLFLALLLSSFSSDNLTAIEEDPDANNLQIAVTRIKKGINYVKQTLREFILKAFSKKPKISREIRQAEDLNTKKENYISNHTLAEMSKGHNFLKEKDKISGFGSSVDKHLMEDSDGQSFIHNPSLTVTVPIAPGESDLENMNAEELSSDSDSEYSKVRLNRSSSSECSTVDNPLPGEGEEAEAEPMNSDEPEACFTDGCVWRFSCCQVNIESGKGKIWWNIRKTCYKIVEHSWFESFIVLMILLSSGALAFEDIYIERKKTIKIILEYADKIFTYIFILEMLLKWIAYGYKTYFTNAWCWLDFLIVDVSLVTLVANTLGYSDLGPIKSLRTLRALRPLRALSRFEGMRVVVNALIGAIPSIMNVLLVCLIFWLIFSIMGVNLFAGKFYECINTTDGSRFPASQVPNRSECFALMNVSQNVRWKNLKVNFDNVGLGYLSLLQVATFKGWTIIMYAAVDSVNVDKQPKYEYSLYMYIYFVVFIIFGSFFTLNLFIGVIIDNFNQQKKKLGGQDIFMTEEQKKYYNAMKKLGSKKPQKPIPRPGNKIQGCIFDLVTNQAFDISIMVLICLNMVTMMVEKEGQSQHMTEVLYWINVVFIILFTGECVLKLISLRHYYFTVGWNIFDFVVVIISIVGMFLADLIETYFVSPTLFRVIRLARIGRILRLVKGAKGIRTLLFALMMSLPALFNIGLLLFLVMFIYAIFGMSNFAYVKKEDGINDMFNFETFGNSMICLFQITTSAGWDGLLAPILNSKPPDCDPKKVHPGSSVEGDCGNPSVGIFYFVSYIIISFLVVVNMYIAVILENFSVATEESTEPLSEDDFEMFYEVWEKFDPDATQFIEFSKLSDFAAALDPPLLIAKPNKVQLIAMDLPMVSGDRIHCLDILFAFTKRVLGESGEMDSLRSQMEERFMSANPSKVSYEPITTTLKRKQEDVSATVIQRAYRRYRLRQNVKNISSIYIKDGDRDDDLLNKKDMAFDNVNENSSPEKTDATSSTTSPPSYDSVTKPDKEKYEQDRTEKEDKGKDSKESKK
Chain of Sodium channel protein type 9 subunit alpha/beta-1/beta-2 (Homo sapiens, UniProt Q15858) (O60939 whole entry, further chain): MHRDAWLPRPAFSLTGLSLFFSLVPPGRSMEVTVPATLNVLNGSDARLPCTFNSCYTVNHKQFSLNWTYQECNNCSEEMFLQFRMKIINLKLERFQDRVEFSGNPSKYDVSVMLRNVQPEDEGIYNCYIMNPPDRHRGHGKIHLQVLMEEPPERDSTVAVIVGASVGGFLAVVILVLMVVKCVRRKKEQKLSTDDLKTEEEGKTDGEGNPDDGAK
Chain of Sodium channel protein type 9 subunit alpha/beta-1/beta-2 (Homo sapiens, UniProt Q15858) (Q07699 whole entry, further chain): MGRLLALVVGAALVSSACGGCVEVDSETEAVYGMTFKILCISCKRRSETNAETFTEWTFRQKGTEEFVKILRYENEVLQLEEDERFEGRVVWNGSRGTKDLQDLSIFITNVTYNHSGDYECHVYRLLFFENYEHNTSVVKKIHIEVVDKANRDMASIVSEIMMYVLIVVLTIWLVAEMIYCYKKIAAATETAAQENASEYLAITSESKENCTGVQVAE
Chain of Sodium channel protein type 5 subunit alpha/beta-1/beta-2 (Q14524 whole entry): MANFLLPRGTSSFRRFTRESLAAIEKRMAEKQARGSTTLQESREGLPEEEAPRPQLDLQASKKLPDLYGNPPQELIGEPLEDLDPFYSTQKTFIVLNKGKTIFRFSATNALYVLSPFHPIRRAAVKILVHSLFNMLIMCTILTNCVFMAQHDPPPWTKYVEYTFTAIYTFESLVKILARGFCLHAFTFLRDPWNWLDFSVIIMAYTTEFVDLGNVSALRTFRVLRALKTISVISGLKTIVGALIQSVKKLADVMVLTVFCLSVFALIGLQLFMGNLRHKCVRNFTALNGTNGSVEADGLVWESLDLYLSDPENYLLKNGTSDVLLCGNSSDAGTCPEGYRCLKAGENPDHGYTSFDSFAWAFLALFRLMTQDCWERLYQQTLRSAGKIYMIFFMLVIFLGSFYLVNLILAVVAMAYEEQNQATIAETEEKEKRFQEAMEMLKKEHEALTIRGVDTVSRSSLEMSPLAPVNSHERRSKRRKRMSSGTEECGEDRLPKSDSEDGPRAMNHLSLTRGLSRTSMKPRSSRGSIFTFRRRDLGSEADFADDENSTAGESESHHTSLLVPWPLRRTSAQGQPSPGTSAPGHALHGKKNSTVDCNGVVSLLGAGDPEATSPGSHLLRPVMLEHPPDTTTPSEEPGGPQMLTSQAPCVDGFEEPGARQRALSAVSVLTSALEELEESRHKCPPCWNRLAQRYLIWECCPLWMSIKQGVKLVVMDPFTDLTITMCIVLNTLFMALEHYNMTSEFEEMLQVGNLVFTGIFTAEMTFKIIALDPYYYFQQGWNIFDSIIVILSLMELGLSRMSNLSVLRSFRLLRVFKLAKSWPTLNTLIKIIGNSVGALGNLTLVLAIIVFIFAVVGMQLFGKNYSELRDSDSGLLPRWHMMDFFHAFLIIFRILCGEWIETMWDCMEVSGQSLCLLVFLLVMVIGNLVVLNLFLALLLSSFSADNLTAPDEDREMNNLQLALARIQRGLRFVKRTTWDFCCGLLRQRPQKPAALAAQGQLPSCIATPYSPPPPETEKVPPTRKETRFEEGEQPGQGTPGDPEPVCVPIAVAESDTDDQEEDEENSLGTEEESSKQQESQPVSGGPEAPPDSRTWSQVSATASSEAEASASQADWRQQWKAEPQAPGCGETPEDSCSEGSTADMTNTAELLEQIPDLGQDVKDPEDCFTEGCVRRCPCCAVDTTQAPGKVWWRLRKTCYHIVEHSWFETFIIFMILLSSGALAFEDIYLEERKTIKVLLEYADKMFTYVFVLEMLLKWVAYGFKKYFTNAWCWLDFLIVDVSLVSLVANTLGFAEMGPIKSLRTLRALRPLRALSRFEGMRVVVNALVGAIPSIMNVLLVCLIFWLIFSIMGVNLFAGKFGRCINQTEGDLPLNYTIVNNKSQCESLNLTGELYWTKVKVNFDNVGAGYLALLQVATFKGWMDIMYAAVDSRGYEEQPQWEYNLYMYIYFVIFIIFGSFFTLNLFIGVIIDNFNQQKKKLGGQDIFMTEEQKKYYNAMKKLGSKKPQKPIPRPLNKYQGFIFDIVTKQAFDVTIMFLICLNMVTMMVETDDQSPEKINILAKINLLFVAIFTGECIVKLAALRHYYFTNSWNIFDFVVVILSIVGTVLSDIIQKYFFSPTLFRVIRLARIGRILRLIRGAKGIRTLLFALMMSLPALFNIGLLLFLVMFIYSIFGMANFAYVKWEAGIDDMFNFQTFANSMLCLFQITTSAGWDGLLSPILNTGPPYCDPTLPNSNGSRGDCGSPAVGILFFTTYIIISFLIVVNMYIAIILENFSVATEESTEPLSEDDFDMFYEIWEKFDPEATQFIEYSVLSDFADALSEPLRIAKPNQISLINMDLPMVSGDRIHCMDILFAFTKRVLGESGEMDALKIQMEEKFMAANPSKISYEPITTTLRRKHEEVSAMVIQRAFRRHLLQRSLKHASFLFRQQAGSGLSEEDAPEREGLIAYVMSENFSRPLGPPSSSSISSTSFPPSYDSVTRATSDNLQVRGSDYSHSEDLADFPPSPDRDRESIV
Chain of Sodium channel protein type 5 subunit alpha/beta-1/beta-2 (O60939 whole entry, further chain): as the sequence (O60939 whole entry, further chain) above
Chain of Sodium channel protein type 5 subunit alpha/beta-1/beta-2 (Q07699 whole entry, further chain): as the sequence (Q07699 whole entry, further chain) above

A word on the IC50: it is the concentration at which inhibition is half-maximal. `O=C(NS(=O)(=O)N1CCC1)c1cc(C2CC2)c(OCC23CC4CC(CC(C4)C2)C3)cc1F`: the IC50 at 5.5 min in [1] came out at 51 nM.
For the compound `C[C@@H](c1cc(Cl)cc(Cl)c1)N1CCC(COc2cc(F)c(C(=O)NS(C)(=O)=O)cc2C2CC2)CC1`, the half-inhibitory concentration (IC50) came to 0.6 nM in series [2] and 551 nM in series [4]. In series [3], the half-maximal inhibitory concentration (IC50) at 5.5 min turned out to be 202 nM.
Usually inhibition stands for how much of the control response was suppressed. A higher inhibition goes with strong suppression. A word on the fraction unbound: it is the share of the substance not bound to proteins or other matrix. High values mean weak binding, low ones extensive binding. Usually logD stands for the decadic logarithm of the distribution of all forms, ionised or not, between an organic phase and buffer at a given pH. Low readings indicate lower lipophilicity, high ones higher lipophilicity. `Cc1cn(-c2cccc(C(F)(F)F)c2)c2cc(F)c(C(=O)NS(C)(=O)=O)cc12` gave an inhibition at 100 µM on hERG (KCNH2) of 54.8%. Moreover, the IC50 was 16 nM in [5], 19 nM in [2], over 100000 nM in series [9] and 14000 nM in series [4]. This compound also yielded a fraction unbound in [6] of 0.004. In [7], the logD turned out to be 1.5. Moreover, the “Ratio IC50” value is listed as 740 in [8] and 5000 in [11]. Also, in the series with Mus musculus, the outcome was Active. Moreover, the solubility thermodynamic at 4 h in [10] was 230 µM (≈ 95.3 µg/mL).
